A melting point compilation (Tetko et al.; mined from patent text by program, amines drawn as free bases though some values may be those of a salt)

Row | Structure (SMILES) | melting point [°C]
1 | N#Cc1cc2cc(Br)ccc2[nH]c1=O | 308 to 311
2 | COc1cccc2c1CC(=O)c1cc(C(C)C(N)=O)ccc1S2 (stereo not drawn) | 178 to 180
3 | Cc1nc2ccccn2c(=O)c1CCN1CCC(Nc2nc3cncnc3n2Cc2cnccn2)CC1 | 180
4 | N#Cc1ccc(OCc2ccsc2)cc1OC(CCC(=O)O)c1c(F)cccc1Cl (racemic) | 128 to 130
5 | COc1ccccc1-c1ccc(C(=O)N2Cc3ccc(C(=O)NCCc4ccc(O)cc4)n3Cc3ccccc32)cc1C | 138 to 147
6 | COc1cccc(-c2cccc3c2OC(COS(=O)(=O)c2ccc(C)cc2)C3)c1 (stereo not drawn) | 141 to 142
7 | Oc1c(Cl)c(Cl)c(-c2c(Cl)c(Cl)c(O)c(Cl)c2Cl)c(Cl)c1Cl | 94 to 96
8 | CCOC(=O)c1cnc(N2CCN(S(=O)(=O)c3ccc4ccccc4c3)CC2)nc1 | > 260
9 | Cc1ccc(NC(=N)Nc2nc(-c3ccccc3)cs2)cc1 | 152 to 153
10 | CCCCOC(=O)CNC(=O)c1ccc2cc(C(=O)OC)[nH]c2c1 | 181 to 184
11 | COc1cc(-n2c(C#N)c3n(c2=O)CCCCC3)c(F)cc1Cl | 144 to 146
12 | Cn1cc(S(=O)(=O)Cl)c(=O)c2cc(F)c(Cl)cc21 | > 300
13 | CCCCSc1cc(C(=O)O)cc(S(N)(=O)=O)c1-c1ccccc1 | 75 to 77
14 | CCCCNc1c([N+](=O)[O-])cc(C(=O)O)cc1S(N)(=O)=O | 192
15 | COc1ccc2c(CC#N)c[nH]c2c1 | 100
16 | CC1(c2ccccc2)CN(c2ccnc(NC(=O)NCc3ccccn3)c2)C(=O)O1 (stereo not drawn) | 194 to 195
17 | Cc1cnc(NS(=O)(=O)c2cccc(Cl)c2Cl)c(OCc2ccco2)n1 | 127 to 129

Row | Structure (SMILES) | melting point [°C]
18 | CC(C)(O)c1onc(-c2ccccc2Cl)c1C(=O)c1nnn(Cc2cc(C(F)(F)F)cc(C(F)(F)F)c2)c1-c1cccnc1 | 105
19 | CCOc1ccc(N2CC(C(=O)OC)CC2=O)cc1 (stereo not drawn) | 67 to 69
20 | N#CC(=O)c1ccc(Cl)c(Cl)c1 | 70 to 71
21 | Cc1ccc(O)c2c1C(C(=O)N(Cc1ccc(N(C)C)cc1)c1ccc(C(C)C)cc1)CCC2 (stereo not drawn) | 190
22 | COc1cc(C)c(Br)cc1C | 38.4
23 | N#CC=Cc1ccc(Cl)s1 | 41 to 43
24 | C[C@@H]1C(=O)C[C@H]2C[C@@H]1OO[C@@]2(C)/C=C\c1ccc(C#N)cc1 | 125
25 | CC(C)(NS(=O)(=O)c1ccccc1)c1ccccc1 | 114 to 115
26 | CC(C)(O)c1ccc(CNC(=O)c2cccnc2Oc2cccc(F)c2)cc1 | 106 to 108
27 | COc1ccc2[nH]c3c(c2c1)C1C(=O)NC(=O)C1C(C(=O)OCc1ccccc1)C3 (stereo not drawn) | 179 to 181
28 | CCCN(CCC)C1Cc2cccc3nc(SC)n(c23)C1 (stereo not drawn) | 49 to 52
29 | Brc1cnc(N2CCCC2)c(OCC2CCCC2)n1 | 54 to 55
30 | CN1C(=O)C(C(=O)Nc2ccccc2)Sc2ccccc21 (stereo not drawn) | 124 to 126
31 | CCOc1cc(CCCC2OC(=O)NC2=O)ccc1OCc1nc(-c2ccccc2)oc1C (stereo not drawn) | 129 to 130
32 | CN1C(=O)[C@H](NC(=O)CCc2ccc(F)cc2F)N=C(c2ccccc2)c2ccccc21 | 79 to 81
33 | Clc1cc(OC(Cl)(Cl)Cl)nc(Cl)n1 | 55 to 56

The remaining lines, values ahead:

Row | melting point [°C] | Structure (SMILES)
34 | 126 to 128 | Cc1nc(CCN2CCOCC2)c2c(n1)N(CC#N)C(=O)C(N)O2 (stereo not drawn)
35 | 214 to 215 | C=Cn1cc(C(=O)O)c(=O)c2cc(F)c(N3CCC4CCC(C3)N4C)cc21 (stereo not drawn)
36 | 188 to 189 | COc1ccc(-c2ccc(=O)[nH]n2)cc1OC1CC2CCC1C2 (stereo not drawn)
37 | 53 to 54 | CC1(c2ccccc2)SC(=Nc2ccc(Cl)cc2)N(Nc2ccccc2)C1=O (stereo not drawn)
38 | 82 to 84 | COC(=O)[C@H]1[C@@H](N=[N+]=[N-])C(=O)N1Cc1ccc(OC)cc1OC (relative stereo)
39 | 211 to 213 | CCCc1nn(CC)c2c(=O)[nH]c(C)nc12
40 | 89 to 91 | CCOC(=O)C(=CNc1nnc(N2CCOC(C)C2)s1)C(=O)OCC (stereo not drawn)
41 | 218 to 220 | O=CNNc1ccc(NC(=S)N2CC=CC2)cc1
42 | 115 to 116 | CCOC(=O)COCCn1c(=O)[nH]c2ccccc2c1=O
43 | 119 to 120 | COc1c(C(=O)Nc2ccc(-n3nc(C(F)(F)F)cc3C(F)(F)F)cc2)csc1Cl
44 | 117 | ON=C(Cn1cncn1)c1ccc(Cl)cc1Cl
45 | 68 to 70 | CCCCCC(=O)c1cc(Cl)ccc1N(CC(=O)OC)S(=O)(=O)c1ccc(C)cc1
46 | 198 to 199 | CC(NC(=O)c1ccc(N)cc1)C(=O)O (stereo not drawn)
47 | 264 to 268 | S=c1[nH]c(Nc2ccc(Cl)cc2)nc2ccccc12
48 | 135 to 139 | O=C(Nc1ccc(-n2nc(C3CC3)cc2C2CC2)cc1)c1ccncc1F
49 | 224 to 226 | CC(C)Cn1c(CNC(=O)OC(C)(C)C)c(-c2cccs2)c2cc(C(=O)O)ccc2c1=O
50 | 140 | COc1ccc(SCn2cc(Cl)cnc2=O)cc1
51 | 151 to 154 | Cc1cc(C=CC(=O)COc2ccc(CC(=O)O)cc2)cc(C)c1O
52 | 74 to 75 | O=[N+]([O-])c1ccccc1Oc1ccc(OCc2ccc(F)c(F)c2)cc1
53 | 114 to 115 | O=C(O)CC1c2ccccc2COc2ccccc21 (stereo not drawn)

Row | melting point [°C] | Structure (SMILES)
54 | 244 to 246 | CC(C)c1nc(-c2ccccc2)c(C(C)C)c(-c2ccc(F)cc2)c1CO
55 | 94 to 95 | CC(C)OCc1cnc2c(N)cccc2c1Cl
56 | 155 to 156 | CCCCOc1c(CN2C(=O)c3ccccc3C2=O)n(CC(C)(C)C)c(=O)c2cc(F)ccc12
57 | 165 to 167 | Nc1ccc(-c2ncc(Br)cn2)c([N+](=O)[O-])c1
58 | 144 to 145 | CCOC(=O)C1=C[C@@H](OC(CC)CC)[C@H](NC(C)=O)[C@@H](NC(=O)OC(C)(C)C)C1
59 | 96 to 101 | O=C(Nc1ccccc1)N1CCC(C(Nc2ccc(F)cc2)c2ccc(F)cc2)CC1 (stereo not drawn)
60 | 166 to 168 | C[C@@H]1[C@H]2C(=O)N(Cc3ccccc3)C(=O)[C@H]2[C@@H](c2ccc(Br)cc2)N1C (racemic)
61 | 85 to 88 | O=C(O)CNC(=O)CCCC1CCCCC1
62 | 141 to 143 | Cc1cccc2c1C=Cc1ccccc1C2(O)CCCN(C)C (stereo not drawn)
63 | 114 to 115 | Cc1cc(=O)c(-c2ccc(F)cc2)c(C)o1
64 | 148 | c1ccc(-c2cc(-c3c[nH]nc3-c3ccccn3)ccn2)cc1
65 | 134 to 135 | COc1ccc(C2=NN(c3ccccc3)C(=O)[C@H]3CC=CC[C@@H]23)cc1OC1CCCC1 (relative stereo)
66 | 241 to 243 | Cc1cc(O)c(C2C=CN(C)CC2)c(O)c1 (stereo not drawn)
67 | 110 to 112 | O=C(CC1CCCC(Cl)C1)Nc1ccccc1 (stereo not drawn)
68 | 184 to 187 | O=C(NC1CCN(CCNC(=O)c2n[nH]c3ccccc23)CC1)OCc1ccccc1
69 | 239 to 241 | Cn1cnnc1COc1nn2c(-c3cc(Cl)on3)nnc2c2ccccc12
70 | 59 to 60 | CCC(=O)C(C#N)Cc1cc(Cl)cc(Cl)c1 (stereo not drawn)
71 | 73 to 75 | CCCCCCCCCCCCNC(=O)c1ccccc1N
72 | 131 to 132 | O=C(NCCO)c1cc(-c2cccc3nn(Cc4cccc(C(F)(F)F)c4)cc23)ccn1
73 | 253 to 254 | CCc1nn(Cc2nccn2C)c2c(=O)[nH]c(-c3cc(S(C)(=O)=O)ccc3OCC(C)C)nc12
